Laboratory results as given in patent US20140171475A1, “ANIMAL ECTOPARASITE-CONTROLLING AGENT” (SUMITOMO CHEMICAL COMPANY, LIMITED, priority 2011, published 2014).
Like-named read-outs stand apart in the source and are kept apart here.

Experiments:
Format in all cases: in vivo
[1] = tested on: Haemaphysalis longicornis (non-blood-fed young ticks); test: Pesticidal activity on ticks, dry film contact application test; settings: 48 h
Method: Any one of the present benzylamide compounds (12), (13), (15), (28), (29), (30), (31), (32), (33), (34), (37) and (38) (16 μg) was dissolved in acetone (0.2 mL), and into a screw bottle (20 mL volume) this solution was dropwised and capped the bottle. Then the capped-bottle was made rolling so that the inner-surface of the screw bottle was uniformly coated with the solution. The acrew bottle was capped off and allowed to dry up for 2 hours. Into the screw bottle, test ticks (Haemaphysalis longicornis, non-blood-fed young ticks, 10 ticks/group) were added, and capped the bottle. Two (2) days later, the number of dead ticks was examined and the mortality was calculated by the following formula:
Mortality (%)=100×(number of dead ticks/number of ticks tested)

[2] = tested on: Haemaphysalis longicornis (young ticks) on mouse; test: Dropping application against mouse-infested ticks; settings: topical, 48 h, 0.1% w/v solution, 200 μL dropwise to whole body surface of mouse, 2 days after application, read-out: Mortality
Method: The previous day of a dropping application, 30 test ticks (Haemaphysalis longicornis, young ticks) were deposited on a mouse. Before the dropping application, uninfested ticks were removed.
Any one of the present benzylamide compounds (12), (13), (15), (28), (29), (30), (31), (32), (33), (34), (36), (37) and (38) (5 mg) was dissolved in a mixture (5 mL) of propylene carbonate and diethylene glycol monoethyl ether in equal volume to prepare a 0.1% w/v solution. Said solution (200 μL) was applied dropwise to the whole body surface of a mouse with a pipette. To a control group, the mixture (200 μL) alone was applied. Said application was repeated 3 times per group.
Two (2) days after the application, the number of dead ticks was examined and the mortality was calculated by the following formula:
Mortality (%)=100×(number of dead ticks/infested ticks before dropping application)

[3] = tested on: Haemaphysalis longicornis (young ticks) on dog (beagle); test: Dropping application against dog-infested ticks; settings: dropping application 20 mg/kg
Method: The previous day of a dropping application, 100 test ticks (Haemaphysalis longicornis, young ticks) were deposited on a dog (beagle). Before the dropping application, infested ticks were counted.
(§1) The present hydrazide compound (13) (1.5 g) was dissolved in diethylene glycol monoethyl ether (6.0 g) to prepare a test solution. Said test solution was directly dropped on the skin of the neck and back of the dog while pushing aside fur thereon at a rate of 0.1 ml per 1 kg of the dog's body weight (dose amount: 20 mg/kg). This is referred to as a test group. On the other hand, diethylene glycol monoethyl ether alone was applied dropwise to a placebo group.
Two (2) days after the application, the number of living ticks, which were infesting the dogs, was examined. When the examination was completed, all infested ticks were removed from the dogs.
(§2) Both of Forty (14) days and 28 days after the application, 100 test ticks (Haemaphysalis longicornis, young ticks) were repeatedly deposited on a dog (beagle) respectively. Two (2) days after the repeated deposition, the number of living ticks, which were infesting the dogs, was examined respectively. When each of the examination was completed, all infested ticks were removed from the dogs.
(§3) The infestation rate and control rate were calculated by the following formulae: […]
(§4) Method of calculating infestation rate and control rate at the initial stage (2 days) after the application:
(§5) Infestation rate (%) at X days after application=(number of living ticks at X days/number of living ticks before application)×100
(§6) Control rate (%) at X days after application {(infestation rate of test group before application infestation rate of test group at X days)/infestation rate of test group before application}×100
(§7) Method of calculating infestation rate and control rate at both 16 days and 30 days after the application:
Infestation rate (%) at X days after application=(number of living ticks at X days/number of living ticks repeatedly deposited)×100 […]

[4] = tested on: Haemaphysalis longicornis (young ticks) on mouse; test: Oral administration against mouse-infested ticks; settings: test solution 20 mg/10 mL at 10 mL per 1 kg mouse body weight, 2 days after administration
Method: The previous day of an oral administration, 30 test ticks (Haemaphysalis longicornis, young ticks) were deposited on a mouse. Before the oral administration, uninfested ticks were removed.
(§8) The present benzylamide compound (13) (20 mg) was dissolved in dimethylformamide (680 mg), and thereto a corn oil was added to prepare a test solution (10 mL). Said test solution was orally administered to the mouse at the rate of 10 mL per 1 kg of the body weight of the mouse with a gastric sonde. To a control group, a 7% dimethylformamide/corn oil solution alone was orally administered. Each administration was repeated 3 times per group.
Two (2) days after the administration, the number of dead ticks was examined and the mortality was calculated by the following formula:
Mortality (%)=100×(number of dead ticks/infested ticks before oral administration)

[5] = tested on: Ctenocephalides felis fleas on cat; test: Dropping application against cat-infested fleas
Method: The previous day of a dropping application, 50 test fleas (Ctenocephalides felis, adult ticks) were deposited on a cat. Before the dropping application, infested flaes were counted.
as §1, with “Each of the” for “The”, “benzylamide” for “hydrazide”, “(specified weight: 0.375 g, 0.75 g and 1.5” for “(1.5”, “cat” for “dog”, “cat's” for “dog's”, “amount: 5 mg/kg, 10 mg/kg and” for “amount:”
Two (2) days after the application, the number of living fleas, which were infesting the cats, was examined. When the examination was completed, all infested fleas were removed from the cats.
as §2, with “14” for “Forty (14)”, “50” for “100”, “fleas (Ctenocephalides felis, adult” for “ticks (Haemaphysalis longicornis, young”, “cat” for “dog (beagle)”
as §3, §4
Infestation rate (%) at X days after application=(number of living fleas at X days/number of living fleas before application)×100
as §6, §7
Infestation rate (%) at X days after application=(number of living fleas at X days/number of living fleas repeatedly deposited)×100
Control rate (%) at X days after application {(infestation rate of placebo group at X days−infestation rate of test group at X days)/infestation rate of placebo group after X days}×100
In addition, if an infestation rate of a test group is higher than a placebo group, then the control rate is deemed to be 0%.

[6] = tested on: Haemaphysalis longicornis (young ticks) on dog (beagle); test: Oral administration against dog-infested ticks; settings: oral gelatin capsule 40 mg/kg
Method: The previous day of an oral administration, 100 test ticks (Haemaphysalis longicornis, young ticks) were deposited on a dog (beagle). Before the oral administration, infested ticks were counted.
A gelatin capsule in which the present benzylamide compound (13) was filled into a gelatin capsule so that the amount of the present benzylamide compound […] administered was 40 mg per 1 kg of the dog's body weight was orally administered to the dog conpulsively. This is referred to as a test group. On the other hand, a geratin capsule alone was orally administered to a placebo group.
Two (2) days after the oral administration, the number of living ticks, which were infesting the dogs, was examined. When the examination was completed, all infested ticks were removed from the dogs.
as §3, §4, §5
Control rate (%) at X days after application {(infestation rate of test group before application−infestation rate of test group at X days)/infestation rate of test group before application}×100 […]

[7] = tested on: Ctenocephalides felies fleas on mouse; test: Oral administration against mouse-infested fleas; settings: test solution 20 mg/10 mL at 10 mL per 1 kg mouse body weight, 2 days after flea deposition
Method: as §8, with “group. After the administration, 20 test fleas (Ctenocephalides felies) were deposited on a mouse.” for “group.”
Two (2) days after the deposition, the number of dead fleas was examined and the mortality was calculated by the following formula:
Mortality (%)=100×(number of dead fleas/number of fleas tested)

[8] = 16 μg as dry film on inner surface of 20 mL screw bottle, 2 days later, read-out: Mortality

SMILES	mortality at 16 µg/bottle [1, 8] [%]	pest or weed control at 0.1 % strength [2] [%]	other results
CC(=O)NCc1cc(C2=NOC(c3cc(Cl)cc(Cl)c3)(C(F)(F)F)C2)ccc1Cl (stereo not drawn) [(28), N-{2-chloro-[5-(3,5-dichlorophenyl)-5-trifluoromethyl-4,5-dihydroisoxazol-3-yl]benzyl}acetamide]	≥ 90	≥ 60	
COCC(=O)NCc1cc(C2=NOC(c3cc(Cl)cc(Cl)c3)(C(F)(F)F)C2)ccc1Cl (stereo not drawn) [(30), N-{2-chloro-[5-(3,5-dichlorophenyl)-5-trifluoromethyl-4,5-dihydroisoxazol-3-yl]benzyl}methoxyacetamide]	≥ 90	≥ 60	
O=C(NCc1cc(C2=NOC(c3cc(Cl)cc(Cl)c3)(C(F)(F)F)C2)ccc1Cl)C(F)(F)F (stereo not drawn) [(36), N-{2-chloro-[5-(3,5-dichlorophenyl)-5-trifluoromethyl-4,5-dihydroisoxazol-3-yl]benzyl}trifluoroacetamide]		≥ 60	
O=C(NCc1cc(C2=NOC(c3cc(Cl)cc(Cl)c3)(C(F)(F)F)C2)ccc1Cl)C1CC1 (stereo not drawn) [Compound (13)]		≥ 60	Tick control rates (%) at X days after the application, X = 2 (days) ([3]; 2 days): 35%; Tick control rates (%) at X days after the application, X = 16 (days) ([3]; 16 days (re-infested at 14 days)): 100%; Tick control rates (%) at X days after the application, X = 30 (days) ([3]; 30 days (re-infested at 28 days)): 100%; Mortality [4]: ≥ 70%; Flea control rate (%) at X days after the application ([5]; dropping application 5 mg/kg, 2 days): 92%; Flea control rate (%) at X days after the application ([5]; dropping application 5 mg/kg, 16 days): 97%; Flea control rate (%) at X days after the application ([5]; dropping application 5 mg/kg, 30 days): 97%; Flea control rate (%) at X days after the application ([5]; dropping application 10 mg/kg, 2 days): 100%; Flea control rate (%) at X days after the application ([5]; dropping application 10 mg/kg, 16 days): 100%; Flea control rate (%) at X days after the application ([5]; dropping application 10 mg/kg, 30 days): 100%; Flea control rate (%) at X days after the application ([5]; dropping application 20 mg/kg, 2 days): 100%; Flea control rate (%) at X days after the application ([5]; dropping application 20 mg/kg, 16 days): 100%; Flea control rate (%) at X days after the application ([5]; dropping application 20 mg/kg, 30 days): 100%; mortality at 16 µg/bottle [1]: ≥ 90%; Tick control rates (%) at 2 days after the administration [6]: 91%; Mortality [7]: ≥ 70%
O=C(NCc1cc(C2=NOC(c3cc(Cl)cc(Cl)c3)(C(F)(F)F)C2)ccc1Cl)C1CCCC1 (stereo not drawn) [(38), N-{2-chloro-[5-(3,5-dichlorophenyl)-5-trifluoromethyl-4,5-dihydroisoxazol-3-yl]benzyl}cyclopentanecarboxamide]	≥ 90	≥ 60	
CCCC(=O)NCc1cc(C2=NOC(c3cc(Cl)cc(Cl)c3)(C(F)(F)F)C2)ccc1Cl (stereo not drawn) [(32)]	≥ 90	≥ 60	
CC(C)C(=O)NCc1cc(C2=NOC(c3cc(Cl)cc(Cl)c3)(C(F)(F)F)C2)ccc1Cl (stereo not drawn) [(31), N-{2-chloro-[5-(3,5-dichlorophenyl)-5-trifluoromethyl-4,5-dihydroisoxazol-3-yl]benzyl}isobutyramide]	≥ 90	≥ 60	
O=C(CCC(F)(F)F)NCc1cc(C2=NOC(c3cc(Cl)cc(Cl)c3)(C(F)(F)F)C2)ccc1Cl (stereo not drawn) [(29), N-{2-chloro-[5-(3,5-dichlorophenyl)-5-trifluoromethyl-4,5-dihydroisoxazol-3-yl]benzyl}-4,4,4-trifluorobutanamide]	≥ 90	≥ 60	
CC(C)CC(=O)NCc1cc(C2=NOC(c3cc(Cl)cc(Cl)c3)(C(F)(F)F)C2)ccc1Cl (stereo not drawn) [(33), N-{2-chloro-[5-(3,5-dichlorophenyl)-5-trifluoromethyl-4,5-dihydroisoxazol-3-yl]benzyl}isovaleramide]	≥ 90	≥ 60	
N#CCC(=O)NCc1cc(C2=NOC(c3cc(Cl)cc(Cl)c3)(C(F)(F)F)C2)ccc1Cl (stereo not drawn) [(34), N-{2-chloro-[5-(3,5-dichlorophenyl)-5-trifluoromethyl-4,5-dihydroisoxazol-3-yl]benzyl}cyanoacetamide]	≥ 90	≥ 60	
O=C(NCc1cc(C2=NOC(c3cc(Cl)cc(Cl)c3)(C(F)(F)F)C2)ccc1Cl)C1CCC1 (stereo not drawn) [(37), N-{2-chloro-[5-(3,5-dichlorophenyl)-5-trifluoromethyl-4,5-dihydroisoxazol-3-yl]benzyl}cyclobutanecarboxamide]	≥ 90	≥ 60	
